The values that follow come from publication PMC10838660, “Artificial intelligence-powered discovery of small molecules inhibiting CTLA-4 in cancer” (BJC reports, 2024).

One series has as its system tumor development. Also on record: method as in PMID 35254416. Conditions: doses of 2 to 200 mg/kg; cited from earlier work.
For series [1], the system named is CD45+ immune cells from MC38 tumors. Kind of series: Single-cell RNA and TCR sequencing of CD45+ tumor immune cells. Format: in vivo, hCTLA-4 mice. Particulars: scRNAseq of CD45+ tumor cells. An excerpt: Using another cohort of hCTLA-4 mice inoculated with MC38 cells, we treated animals (n = 5 per group) with ipilimumab, anti-PD-1, anti-PD-1 plus D11, D11 alone, or vehicle in the same dosages as used previously. Some animals’ tumors were collected approximately 10 days after the last treatment dose, whereas for the remaining animals, the tumors were allowed to grow (Supplementary Fig. S7). […] Single-cell suspensions from tumors were sorted to obtain CD45^+ immune cells, which were then subjected to single-cell RNA sequencing (scRNAseq) and TCR sequencing. Next, the immune cell populations were compared across the samples (Fig. 5b, c). […]
Tumors from CTLA-4-humanized MC38 syngeneic mice (n = 3–5 mice) were extracted for single-cell suspension using a gentleMACS Octo Dissociator (Miltenyi Biotec). […] The acquired scRNAseq reads from the 10X Genomics platform were aligned to a reference genome (mm10) using Cell Ranger (V.7.1, 10X Genomics) default parameters. The reads and cells were further filtered with Seurat (V.4.0.3) in R (V.4.1.0). […] The clonality of the TCR repertoire was calculated as a 1-Pielou index value using the formula 1+ ∑(i=1 to n) (pi*ln(pi))/ln(n), where pi is the frequency of clone i for a sample of n unique clones; this metric was normalized to the number of unique clones and ranges from 0 to 1. […]

Series [2] has as its system MC38 tumors. Nature of the series: MC38 tumors in humanized CTLA-4 (hCTLA-4) mice. In kind it is in vivo. Particulars: for development of MC38 tumors: therapeutic, A9 and D11 25 mg/kg. An excerpt: (§1) In hCTLA-4 mice, the ECD of the mouse Ctla-4 gene has been replaced with the human counterpart, yet the resulting protein still interacts effectively with mouse CD80 and CD86 [42]. […] Next, we measured the mice’s levels of serum cardiac troponin I type 3 (TNNI3), a marker associated with ipilimumab-induced irAEs. We found elevated serum TNNI3 levels in mice treated with ipilimumab, anti-PD-1, or anti-PD-1 plus D11, but not in mice treated with D11 alone (Fig. 4e). It is unclear why D11 monotherapy appeared to have a protective effect in comparison with anti-PD-1 alone. We also treated 2 human cells lines, HCT116 and MDA-MB231, with D11 and 5-fluorouracil, an antimetabolite drug that is widely used for the treatment of colorectal cancer. […] Thus, it is likely that D11 is weakly toxic to tumor cells and that its antitumor effects are largely due to its regulation of the immune response.
Using another cohort of hCTLA-4 mice inoculated with MC38 cells, we treated animals (n = 5 per group) with ipilimumab, anti-PD-1, anti-PD-1 plus D11, D11 alone, or vehicle in the same dosages as used previously. Some animals’ tumors were collected approximately 10 days after the last treatment dose, whereas for the remaining animals, the tumors were allowed to grow (Supplementary Fig. S7). […] Single-cell suspensions from tumors were sorted to obtain CD45^+ immune cells, which were then subjected to single-cell RNA sequencing (scRNAseq) and TCR sequencing. Next, the immune cell populations were compared across the samples (Fig. 5b, c). […] Another interesting observation from the scRNAseq analysis was that the differential expression of membrane-type 1 matrix metalloproteinase, which is known for its role as a key regulator in cell migration in tissues, was associated with D11 treatment. This finding could lead to a possible new mechanism of action, besides macrophage recruitment, to drive the search for anticancer compounds.
(§2) We next investigated analogs of the 5 anti-CTLA-4 compounds for possible refinement.
C57BL/6 mice were purchased from the Charles River Laboratories. In hCTLA-4 mice, the exons encoding for the ECD and transmembrane domains of murine CTLA-4 were replaced with the human versions. […] Tumor volumes were calculated with the formula volume = (width^2 × length)/2. Measurements were recorded every 2 to 3 days. […] For the histopathologic analysis of the internal organs harvested from mice that had been treated with therapeutic compounds or control antibodies, stained sections were prepared from the formalin-fixed tissue and were assessed in a blinded fashion.

The subject of series [3] is interaction of CTLA-4 with CD80 and CD86. Nature of the series: Luciferase reporter assay, CTLA-4 effector Jurkat T cells with Raji antigen-presenting cells. Format: cell-based, human. An excerpt:
We first evaluated the inhibitory impacts of the compounds against the interaction between CTLA-4 and CD80 using an amplified luminescent proximity homogeneous (Alpha)LISA assay. In this assay, a biotinylated CD80 binds to streptavidin-coated alpha donor beads, while anti-His AlphaLISA acceptor beads capture His-tagged CTLA-4. Upon binding of CD80 to CTLA-4, the donor and acceptor beads draw near, thus excitation of the donor bead leads to the release of singlet oxygen molecules. Consequently, an energy transfer cascade occurs in the acceptor beads, culminating in an intense peak of light emission at 615 nm (Fig. 1a). […] The compounds’ inhibitory activity against CTLA-4 was confirmed through a luciferase reporter assay involving 2 genetically engineered cell lines. First, we developed a CTLA-4 effector cell line using Jurkat T cells expressing human CTLA-4 and a luciferase reporter driven by a native promoter responsive to T-cell receptor (TCR)/CD28 activation. We also managed to establish an adjacent antigen-presenting cell line utilizing Raji cells, which are capable of expressing constitutively active engineered proteins on their surfaces without requiring antigens for effectivity. The Raji cells will also be able to naturally produce endogenous levels of both CD80 as well as CD86 molecules within the target APCs themselves as they transclude from one host to another. […]

For series [4], the system named is serum cardiac troponin I type 3 (TNNI3). Kind of series: Serum TNNI3 in treated mice. In kind it is in vivo. Particulars: marker of ipilimumab-induced irAEs.
Text: as §1

Series [5] deals with mouse tumor-infiltrating lymphocytes (TILs). Kind of series: IFN-γ production in mouse TILs cocultured with MC38 tumor cells. In kind it is cell-based. On the procedure: We examined the ability of these 5 anti-CTLA-4 compounds to stimulate interferon-γ (IFN-γ) production in mouse tumor-infiltrating lymphocytes (TILs). MC38 tumors grown in C57BL/6 mice were extracted to obtain CD45^+ TILs.
(§3) The ability of compounds to be immunostimulatory was measured by coculturing mouse-derived TILs with MC38 tumors grown in C57BL/6 mice. Tumors were digested using a Tumor Dissociation Kit (Miltenyi Biotec, 130-095-929). After cell isolation, TILs were extracted with a MagniSort Mouse CD45 isolation kit protocol (Invitrogen, 8802-6865-74). TILs were cocultured with MC38 cells for 48 h, and the expression levels of IFN-γ were detected with the AlphaLISA Mouse IFN-γ Detection Kit (PerkinElmer, AL501C). Human DCs and T cells from different patients were prepared and treated as described. For MC38 and human cancer cells treated with compounds, the CellTiter-Glo Luminescent Cell Viability Assay (Promega, G7570) was used to measure the viability.

Series [6] has as its system human DCs with allogeneic peripheral blood mononuclear cells. Kind of series: Human DCs cultured with allogeneic PBMCs, flow cytometry. Format: cell-based. Here is the method:
CD80 and CD86 on dendritic cells (DCs) interact with CD28 or CTLA-4 on T cells to regulate T-cell activation.
as §3
Flow cytometry was used to measure subcellular populations in tumors. All flow cytometry analyses were performed using either an LSR II flow cytometer (BD Biosciences) or a Northern Lights-3000 flow cytometer (Cytek) and analyzed with FlowJo (Treestar, Inc.). All flow analyses were representative of at least 3 independent experiments using […] CD proteins 4, 8, and 25 (CD4, 116003; CD8, 100707; and CD25, 102011); Foxp3 (126409); and IFN-γ (506506) flow antibodies (Biolegend). Antimouse and antihuman CTLA-4 antibodies were purchased from BioLegend (106313) and Invitrogen (46-1529-42).

Series [7] in a line: Body weight of treated hCTLA-4 mice. Format: in vivo. Conditions: MC38-inoculated hCTLA-4 mice, treated vs control.
Text: as §1, §2

Series [8] has as its system MC38 tumors. Nature of the series: MC38 syngeneic tumors in C57BL/6 mice. In kind it is in vivo. Here is the method: C57BL/6 mice were purchased from the Charles River Laboratories. In hCTLA-4 mice, the exons encoding for the ECD and transmembrane domains of murine CTLA-4 were replaced with the human versions. All mice were maintained at the Research Animal Facility of Baylor College of Medicine, and all studies were conducted under an animal protocol approved by the Baylor College of Medicine Institutional Animal Care and Use Committee. Mice were challenged with 0.5 million MC38 colorectal cancer cells passaged the previous day at 75% confluence. For the prophylactic model, ipilimumab or small-molecule treatment began 1 day after tumor cell inoculation. For the therapeutic model, ipilimumab or small-molecule treatment was initiated 7 to 17 days after the injection of tumor cells, depending upon when the tumors reached an average size of approximately 100 mm^3. Tumor volumes were calculated with the formula volume = (width^2 × length)/2. Measurements were recorded every 2 to 3 days. For the histologic analyses, the internal organs, including the livers, kidneys, lungs, colons, and salivary glands, were fixed in 10% paraformal-dehyde for at least 24 h, cut from paraffin blocks in […] sections using a Microm HM 315 microtome, and mounted on SuperFrost Plus slides (Roth). Slides were stained with hematoxylin and eosin (Shandon Varistain [24–4] Automatic Stainer). For the histopathologic analysis of the internal organs harvested from mice that had been treated with therapeutic compounds or control antibodies, stained sections were prepared from the formalin-fixed tissue and were assessed in a blinded fashion.

Where [9] appears, read: start at approximately 100 mm^3.
Where [10] appears, read: prophylactic setting, 25 mg/kg i.p.

For `Cc1c(Nc2nccc3cc(CN4CC[C@@H](O)C4)cnc23)cccc1-c1cccc(-c2nc3cc(CN4CC[C@@H](C(=O)O)C4)cc(C#N)c3o2)c1C` [INCB086550], the tumor development entry with tumor development is “inhibited tumor development”.

In the case of “ipilimumab: an anti-CTLA-4 antibody, first immune checkpoint blockade therapy to receive FDA approval [reference compound]”, the tumor-infiltrating macrophages entry in series [1] was “only moderately affected”. In addition, the “tumor inhibition / therapeutic efficacy” value in the series with MC38 tumors [2] (second cohort (Fig. 5a), start at approximately 100 mm^3) is recorded as “inhibited tumors”. Further, in the series on MC38 tumors [2] (setting [9]), the “development of MC38 tumors” value was “inhibited tumors”. The “promoter-mediated luminescence (blockade of CTLA-4 with CD80 and CD86)” value in series [3] was “resulted in promoter-mediated luminescence”. Further, the “serum TNNI3 levels” value in series [4] is “elevated”. Also, the IFN-γ production entry in series [5] (3-μg/ml doses) was “substantially stimulated”. Besides, in series [6] (5 μg/ml, 6 days), the “Tconv (%)” value worked out at 42.7%, the Tconv/Treg ratio was found to be 3.44 and the “Treg (%)” value is 12.4%.

As for `C/C(=N/OCc1ccccc1)c1nc(-c2ccccc2)[nH]c1C` [A9], in [7], the body weight result is recorded as “no significant weight loss”. Further, in the series with MC38 tumors [8] (25 mg/kg i.p.), the “numbers of tumor-infiltrating Treg cells” value is recorded as “reduced”. For the same molecule, the MC38 models entry in the series with MC38 tumors [8] (Table 3 summary, Mouse or human CTLA-4/mouse CD80) is on record as “Y”. The “tumor growth after rechallenge with 200,000 MC38 cells” value with MC38 tumors [8] (mice that completely rejected tumors, vs control group) is “slower”. Besides, in the series on MC38 tumors [8] (setting [10]), the animal survival entry was “prolonged animal survival” and the “complete tumor rejection / complete response” value is recorded as “Four of 10”. Besides, the tumor growth result with MC38 tumors [8] (prophylactic setting, 4 200-μg doses (25 mg/kg) i.p. every other day, start 1 day after inoculation) is recorded as “drastically inhibited tumor growth”. Also, the tumor growth entry with MC38 tumors [8] (therapeutic setting, start at tumor volume approximately 100 mm^3) was “significantly reduced tumor growth”. Further, in the series on MC38 tumors [2] (mouse, in vivo), the “tumor-inhibition activity in hCTLA-4 mice compared with non-humanized C57BL/6 mice” value is “superior tumor-inhibition activity”. In addition, the “development of MC38 tumors” value in the series on MC38 tumors [2] (setting [9]) was “substantially inhibited”. The “promoter-mediated luminescence (blockade of CTLA-4 with CD80 and CD86)” value in series [3] is “resulted in promoter-mediated luminescence”. Moreover, in series [5] (Table 3 summary, Mouse CTLA-4/CD80), the “INF-γ stimulation ex vivo (MC38)” value is on record as “Y”. Besides, in [6] (10 μM, 6 days), the “Tconv (%)” value is 43.1% and the “Treg (%)” value amounted to 12.4%. In series [6] (50 μM, 6 days), the “Tconv (%)” value came to 49.6% and the “Treg (%)” value came out at 20.9%. Besides, the “Tconv: Treg decrease (human cells)” value in series [6] (Table 3 summary, Human CTLA-4/CD80) is given as “Y”.
